Reference: the NIST ThermoML archive (doi:10.1016/j.fluid.2011.03.005)

How the values were obtained:
[1] = for mass density: 101.33 kPa, Liquid, Vibrating tube method
[2] = Molar enthalpy of transition or fusion; conditions: Crystal; DSC

CCC[N+]1(C)CCCCC1.O=S(=O)([N-]S(=O)(=O)C(F)(F)F)C(F)(F)F
[1]
Conditions | mass density [kg/m3]
293.15 K | 1414.1
298.15 K | 1409.6
303.15 K | 1405.3
308.15 K | 1401
313.15 K | 1396.6
318.15 K | 1392.3
323.15 K | 1388
328.15 K | 1383.7
333.15 K | 1379.4
338.15 K | 1375.1
343.15 K | 1370.9
348.15 K | 1366.6
353.15 K | 1362.3
358.15 K | 1358.1
363.15 K | 1353.9

Conditions | Normal melting temperature [°C]
[1], Crystal, DTA | 12.6

Conditions | Molar enthalpy of transition or fusion [kcal/mol]
[2] | 6.12
